Molecular target: human PDE1B enzyme (Homo sapiens (Human), UniProt Q01064)
Assay: IMAP TR-FRET PDE1B enzymatic assay
Assay type: biochemical
Settings: negative log of half-maximal molar inhibitory concentration, 200 nM FAM-cAMP, values given as bins; for IC50: read-out: PDE1b (pIC50) (converted)
Procedure, shortened: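 Full-length GST-tagged human PDE1B (250 pg/well) in IMAP BSA buffer with 10 U/ml calmodulin and 2.5 mM CaCl2; compound pre-incubated 5 min at room temperature, then 200 nM (final) FAM-cAMP for 30 min. IMAP binding reagent/Tb added, 1 h; TR-FRET 520/490 ratio read. IC50 from sigmoidal dose-response fit.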

Row | Compound | IC50 [nM] | PDE1b (pIC50)
1 | Cc1oc2ncnc(NC3(C)CC3)c2c1C(=O)N1CCc2c(cc[nH]c2=O)C1 [Example 337, 6-{6-Methyl-4-[(1-methylcyclopropyl)amino]furo[2,3-d]pyrimidine-5-carbonyl}-1,2,5,6,7,8-hexahydro-2,6-naphthyridin-1-one] | 10 to 100 | –
2 | Cc1oc2ncnc(NC3(C)CC3)c2c1C(=O)N1CCc2ccc(O)cc2C1C (centres unmarked) [Example 338, 1-Methyl-2-{6-methyl-4-[(1-methylcyclopropyl)amino]furo[2,3-d]pyrimidine-5-carbonyl}-1,2,3,4-tetrahydroisoquinolin-7-ol] | – | >8
3 | Cc1oc2ncnc(NC3(C)CC3)c2c1C(=O)N1CCC(c2cncc(F)c2)C1 (centres unmarked) [Example 339, 5-[3-(5-Fluoropyridin-3-yl)pyrrolidine-1-carbonyl]-6-methyl-N-(1-methylcyclopropyl)furo[2,3-d]pyrimidin-4-amine] | 10 to 100 | –
4 | Cc1oc2ncnc(NC3(C)CC3)c2c1C(=O)N1CCc2c(ncnc2NC2CC2)C1 [Example 342, 5-[4-(Cyclopropylamino)-5H,6H,7H,8H-pyrido[3,4-d]pyrimidine-7-carbonyl]-6-methyl-N-(1-methylcyclopropyl)furo[2,3-d]pyrimidin-4-amine] | 10 to 100 | –
5 | Cc1oc2ncnc(NC3(C)CC3)c2c1C(=O)N1CCc2c(ncnc2NCC2CC2)C1 [Example 343, 5-{4-[(Cyclopropylmethyl)amino]-5H,6H,7H,8H-pyrido[3,4-d]pyrimidine-7-carbonyl}-6-methyl-N-(1-methylcyclopropyl)furo[2,3-d]pyrimidin-4-amine] | – | >8
6 | Cc1oc2ncnc(NC3(C)CC3)c2c1C(=O)N1CCC(c2ncc(Cl)cn2)CC1 [Example 344, 5-[4-(5-Chloropyrimidin-2-yl)piperidine-1-carbonyl]-6-methyl-N-(1-methylcyclopropyl)furo[2,3-d]pyrimidin-4-amine] | – | >8
7 | COc1ccnc(C2CCN(C(=O)c3c(C)oc4ncnc(NC5(C)CC5)c34)CC2)n1 [Example 345, 5-[4-(4-Methoxypyrimidin-2-yl)piperidine-1-carbonyl]-6-methyl-N-(1-methylcyclopropyl)furo[2,3-d]pyrimidin-4-amine] | – | >8
8 | Cc1oc2ncnc(NC3(C)CC3)c2c1C(=O)N1CCC(c2ccc(O)cc2)C1 (centres unmarked) [Example 346, 4-(1-{6-Methyl-4-[(1-methylcyclopropyl)amino]furo[2,3-d]pyrimidine-5-carbonyl}pyrrolidin-3-yl)phenol] | – | >8
9 | Cc1oc2ncnc(NC3(C)CC3)c2c1C(=O)N1CCC(O)(c2ccccc2)C1 (centres unmarked) [Example 347, 1-{6-Methyl-4-[(1-methylcyclopropyl)amino]furo[2,3-d]pyrimidine-5-carbonyl}-3-phenylpyrrolidin-3-ol] | 10 to 100 | –
10 | Cc1oc2ncnc(NC3(C)CC3)c2c1C(=O)N1CCC(c2ccc(Cl)cn2)C1 (centres unmarked) [Example 348, 5-[3-(5-Chloropyridin-2-yl)pyrrolidine-1-carbonyl]-6-methyl-N-(1-methylcyclopropyl)furo[2,3-d]pyrimidin-4-amine] | – | >8
11 | Cc1oc2ncnc(NC3(C)CC3)c2c1C(=O)NC1(c2ncccn2)CC1 [Example 349, 6-Methyl-4-[(1-methylcyclopropyl)amino]-N-[1-(pyrimidin-2-yl)cyclopropyl]furo[2,3-d]pyrimidine-5-carboxamide] | 10 to 100 | –
12 | Cc1cc(C(C)NC(=O)c2c(C)oc3ncnc(NC4(C)CC4)c23)no1 (centres unmarked) [Example 350, 6-Methyl-N-[1-(5-methyl-1,2-oxazol-3-yl)ethyl]-4-[(1-methylcyclopropyl)amino]furo[2,3-d]pyrimidine-5-carboxamide] | 10 to 100 | –
13 | Cc1oc2ncnc(NC3(C)CC3)c2c1C(=O)N1CCC(c2nc(Cl)ncc2F)CC1 [Example 351, 5-[4-(2-Chloro-5-fluoropyrimidin-4-yl)piperidine-1-carbonyl]-6-methyl-N-(1-methylcyclopropyl)furo[2,3-d]pyrimidin-4-amine] | – | >8
14 | Cc1oc2ncnc(NC3(C)CC3)c2c1C(=O)NCc1cc(-c2cnn(C)c2)on1 [Example 352, 6-Methyl-N-{[5-(1-methyl-1H-pyrazol-4-yl)-1,2-oxazol-3-yl]methyl}-4-[(1-methylcyclopropyl)amino]furo[2,3-d]pyrimidine-5-carboxamide] | 10 to 100 | –
15 | Cc1oc2ncnc(NC3(C)CC3)c2c1C(=O)NC1(CO)CCC1 [Example 353, N-[1-(Hydroxymethyl)cyclobutyl]-6-methyl-4-[(1-methylcyclopropyl)amino]furo[2,3-d]pyrimidine-5-carboxamide] | 10 to 100 | –
16 | Cc1oc2ncnc(NC3(C)CC3)c2c1C(=O)N1CC(c2cccc(F)n2)C1 [Example 354, 5-[3-(6-Fluoropyridin-2-yl)azetidine-1-carbonyl]-6-methyl-N-(1-methylcyclopropyl)furo[2,3-d]pyrimidin-4-amine] | – | >8

Row | Compound | IC50 [nM] | PDE1b (pIC50)
17 | Cc1oc2ncnc(NC3(C)CC3)c2c1C(=O)N1CCC(c2ncc(O)cn2)CC1 [Example 355, 2-(1-{6-Methyl-4-[(1-methylcyclopropyl)amino]furo[2,3-d]pyrimidine-5-carbonyl}piperidin-4-yl)pyrimidin-5-ol] | – | >8
18 | Cc1oc2ncnc(NC3(C)CC3)c2c1C(=O)N1CCC(c2ncc(F)cn2)CC1 [Example 356, 5-[4-(5-Fluoropyrimidin-2-yl)piperidine-1-carbonyl]-6-methyl-N-(1-methylcyclopropyl)furo[2,3-d]pyrimidin-4-amine] | 10 to 100 | –
19 | Cc1oc2ncnc(NC3(C)CC3)c2c1C(=O)N1CCN(c2ncc(F)cn2)CC1C (centres unmarked) [Example 357, 5-[4-(5-Fluoropyrimidin-2-yl)-2-methylpiperazine-1-carbonyl]-6-methyl-N-(1-methylcyclopropyl)furo[2,3-d]pyrimidin-4-amine] | 10 to 100 | –
20 | Cc1oc2ncnc(NC3(C)CC3)c2c1C(=O)N1CCN(c2ncc(F)cn2)C(C)C1 (centres unmarked) [Example 358, 5-[4-(5-Fluoropyrimidin-2-yl)-3-methylpiperazine-1-carbonyl]-6-methyl-N-(1-methylcyclopropyl)furo[2,3-d]pyrimidin-4-amine] | 10 to 100 | –
21 | Cc1oc2ncnc(NC3(C)CC3)c2c1C(=O)N1CCN(c2ccc(S(C)(=O)=O)cc2F)CC1 [Example 359, 5-[4-(2-Fluoro-4-methanesulfonylphenyl)piperazine-1-carbonyl]-6-methyl-N-(1-methylcyclopropyl)furo[2,3-d]pyrimidin-4-amine] | 10 to 100 | –
22 | Cc1cnc(C2CCN(C(=O)c3c(C)oc4ncnc(NC5(C)CC5)c34)CC2)nc1 [Example 360, 6-Methyl-N-(1-methylcyclopropyl)-5-[4-(5-methylpyrimidin-2-yl)piperidine-1-carbonyl]furo[2,3-d]pyrimidin-4-amine] | – | >8
23 | COc1cccc(C2CCN(C(=O)c3c(C)oc4ncnc(NC5(C)CC5)c34)C2)c1 (centres unmarked) [Example 361, 5-[3-(3-Methoxyphenyl)pyrrolidine-1-carbonyl]-6-methyl-N-(1-methylcyclopropyl)furo[2,3-d]pyrimidin-4-amine] | – | >8
24 | Cc1oc2ncnc(NC3(C)CC3)c2c1C(=O)N1CCN(c2nc(Cl)ncc2F)CC1 [Example 362, 5-[4-(2-Chloro-5-fluoropyrimidin-4-yl)piperazine-1-carbonyl]-6-methyl-N-(1-methylcyclopropyl)furo[2,3-d]pyrimidin-4-amine] | 10 to 100 | –
25 | Cc1oc2ncnc(NC3(C)CC3)c2c1C(=O)NNc1ncc(F)cn1 [Example 363, N′-(5-Fluoropyrimidin-2-yl)-6-methyl-4-[(1-methylcyclopropyl)amino]furo[2,3-d]pyrimidine-5-carbohydrazide] | 100 to 1000 | –
26 | COc1ccc(C2CCN(C(=O)c3c(C)oc4ncnc(NC5(C)CC5)c34)CC2)nn1 [Example 364, 5-[4-(6-Methoxypyridazin-3-yl)piperidine-1-carbonyl]-6-methyl-N-(1-methylcyclopropyl)furo[2,3-d]pyrimidin-4-amine] | 10 to 100 | –
27 | COc1cnc(C2CCN(C(=O)c3c(C)oc4ncnc(NC5(C)CC5)c34)CC2)cn1 [Example 365, 5-[4-(5-Methoxypyrazin-2-yl)piperidine-1-carbonyl]-6-methyl-N-(1-methylcyclopropyl)furo[2,3-d]pyrimidin-4-amine] | – | >8
28 | COc1ccc(C2CCN(C(=O)c3c(C)oc4ncnc(NC5(C)CC5)c34)CC2)nc1 [Example 366, 5-[4-(5-Methoxypyridin-2-yl)piperidine-1-carbonyl]-6-methyl-N-(1-methylcyclopropyl)furo[2,3-d]pyrimidin-4-amine] | – | >8
29 | COc1cccc(C2CCN(C(=O)c3c(C)oc4ncnc(NC5(C)CC5)c34)C2)n1 (centres unmarked) [Example 367, 5-[3-(6-Methoxypyridin-2-yl)pyrrolidine-1-carbonyl]-6-methyl-N-(1-methylcyclopropyl)furo[2,3-d]pyrimidin-4-amine] | – | >8
30 | Cc1oc2ncnc(NC3(C)CC3)c2c1C(=O)N1CCC(c2nccc(C3CC3)n2)CC1 [Example 368, 5-[4-(4-Cyclopropylpyrimidin-2-yl)piperidine-1-carbonyl]-6-methyl-N-(1-methylcyclopropyl)furo[2,3-d]pyrimidin-4-amine] | – | >8
31 | CCCc1ccnc(C2CCN(C(=O)c3c(C)oc4ncnc(NC5(C)CC5)c34)CC2)n1 [Example 369, 6-Methyl-N-(1-methylcyclopropyl)-5-[4-(4-propylpyrimidin-2-yl)piperidine-1-carbonyl]furo[2,3-d]pyrimidin-4-amine] | – | >8
32 | COc1cnc(C2CCN(C(=O)c3c(C)oc4ncnc(NC5(C)CC5)c34)CC2)nc1 [Example 370, 5-[4-(5-Methoxypyrimidin-2-yl)piperidine-1-carbonyl]-6-methyl-N-(1-methylcyclopropyl)furo[2,3-d]pyrimidin-4-amine] | – | >8
